Converted amounts (≈) assume the structure as drawn.
How the values were obtained:
S. typhimurium WT [1] = assay: High-throughput primary screen for S. typhimurium growth inhibitors at 200 μM; assay type: cell-based, Salmonella enterica subsp. enterica serovar Typhimurium LT2; conditions: adjusted M9 minimal broth, 12 hrs, 37° C., bactericidal = 100% growth inhibition and no growth on XLT4 agar, bacteriostatic = 100% growth inhibition but growth on XLT4 agar
Description: (§1) Identification of S. typhimurium growth inhibitors: The 4182 small molecules (SMs) were screened at 200 μM against S. typhimurium WT using HTS assay in a 96-well plate format. An overnight Salmonella suspension was normalized at 0.05 OD600 (approximately 3.5×10^7 CFU/ml) with an adjusted M9 minimal broth medium (12.7 mM Na2HPO4 7H2O; 22 mM KH2PO4; 18.7 mM NH4Cl; 2 mM MgSO4; 0.1 mM CaCl2; 0.4% glucose; 0.05% casamino acids). 100 μL of the suspension plus 2 μl of SMs (200 μM) were transferred into each well of a sterile, non-treated, flat bottom 96-well plate. Bacteria alone (negative control, NC), 2% DMSO plus bacteria (DMSO control), 20 μg/ml chloramphenicol or 50 μg/ml kanamycin plus bacteria (positive controls, PC), and M9 medium only were used as control. Plates were incubated in a Sunrise™ Tecan kinetic microplate reader for 12 hrs at 37° C. and the optical density (OD) was measure at 600 nm as described above. Percentage of inhibition=[…]. SMs were identified as growth inhibitors if their inhibition value after incubation was above 20% (value representing the inhibition level monitored with the DMSO controls). Cultures from wells showing no turbidimetric increase were transferred onto a XLT4 agar plate. Plates were incubated at 37° C. for 36 hrs.

S. typhimurium WT [2] = assay: MIC and MBC dose-response, serotype Typhimurium; assay type: cell-based, Salmonella enterica subsp. enterica serovar Typhimurium LT2; conditions: for MIC/MBC: Salmonella serotype Typhimurium, MIC identical to MBC
Description: as §1, with “An” for “Identification of S. typhimurium growth inhibitors: The 4182 small molecules (SMs) were screened at 200 μM against S. typhimurium WT using HTS assay in a 96-well plate format. An”, “SMs were identified as growth inhibitors if their inhibition value after incubation was above 20% (value representing the inhibition level monitored with the DMSO controls).” left out
(§2) Screens were performed as described in the primary screen. The lowest SM concentration with a static effect was considered as the minimal inhibitory concentration (MIC) and the lowest SM concentration with a cidal effect was considered as the minimal bactericidal concentration (MBC).

Salmonella Albany = assay: MIC and MBC dose-response, serotype Albany; assay type: cell-based, Salmonella enterica; conditions: MIC identical to MBC
Description: as §1, with “An” for “Identification of S. typhimurium growth inhibitors: The 4182 small molecules (SMs) were screened at 200 μM against S. typhimurium WT using HTS assay in a 96-well plate format. An”, “SMs were identified as growth inhibitors if their inhibition value after incubation was above 20% (value representing the inhibition level monitored with the DMSO controls).” left out
as §2

Salmonella Braenderup = assay: MIC and MBC dose-response, serotype Braenderup; assay type: cell-based, Salmonella enterica; conditions: MIC identical to MBC
Salmonella Newport = assay: MIC and MBC dose-response, serotype Newport; assay type: cell-based, Salmonella enterica; conditions: MIC identical to MBC
Description: as §1, with “An” for “Identification of S. typhimurium growth inhibitors: The 4182 small molecules (SMs) were screened at 200 μM against S. typhimurium WT using HTS assay in a 96-well plate format. An”, “SMs were identified as growth inhibitors if their inhibition value after incubation was above 20% (value representing the inhibition level monitored with the DMSO controls).” left out
as §2

Salmonella Muenchen = assay: MIC and MBC dose-response, serotype Muenchen; assay type: cell-based, Salmonella enterica; conditions: MIC identical to MBC
Description: as §1, with “An” for “Identification of S. typhimurium growth inhibitors: The 4182 small molecules (SMs) were screened at 200 μM against S. typhimurium WT using HTS assay in a 96-well plate format. An”, “SMs were identified as growth inhibitors if their inhibition value after incubation was above 20% (value representing the inhibition level monitored with the DMSO controls).” left out
as §2

[3] = system: S. typhimurium cell membrane; assay: Crystal violet uptake after treatment with lethal dose of SMs; assay type: cell-based; conditions: 1 hr; for reduction of crystal violet uptake: compared to 1% DMSO control
Description: To further support the observation obtained with confocal microscopy, the same samples were analyzed using scanning electron microscopy (SEM; FIG. 13P-S). […] Smaller outer membrane vesicles of approximately 20 to 70 nm were also observed covering the surface of the bacteria. […] These conclusions were further supported by measuring the crystal violet uptake and leakage of materials assessed at 260 nm after 1 hr of treatment with a lethal dose of SMs.

[4] = system: Galleria mellonella larvae; assay: Toxicity on Galleria mellonella larva; assay type: in vivo; conditions: over 72 HPI, single treatment with 12.5 μg per larva
Description: Toxicity of the selected four SMs on Galleria mellonella larva: Galleria mellonella larvae (fifth instar stage) were incubated for 12 hrs at 37° C. in the dark. After incubation, only larvae with a white phenotype and a body weight ranging between 225 mg to 275 mg were selected for the injection. Fifteen larvae per group were inoculated in one of the last pro-leg with 12.5 μg of SMs (8.5 μl) using a PB600-1 repeating dispenser (Hamilton, Reno, NV) attached to 300 μl insulin syringe, 31-gauge, 8 mm needle length (ReliOn®, Bentonville, AR). SMs were diluted into a buffer mix (30% DMSO plus 10 mM MgSO4). Larvae were placed inside a plastic petri dish and incubated for 3 days in the dark at 37° C. Every 12 hrs of interval, the larva survival was monitored. Non-treated larvae, larvae treated with the buffer mix, and larvae treated with 12.5 μg of chloramphenicol were used as control. At least two independent experiments were conducted.

[5] = system: S. typhimurium WT internalized in Caco-2 cells; assay: S. typhimurium intracellular survival in infected Caco-2 cells; assay type: cell-based; conditions: S. Typhimurium-infected Caco-2 cells, 24 hrs treatment
Description: Effect of the four SMs on S. typhimurium intracellular survival in cells lines: The ability of four SMs to clear S. typhimurium WT […] was evaluated using three cell lines (Caco-2 cells, HD11, and THP-1 cells). The Salmonella intracellular survival as assessed as described (13). A multiplicity of infection “MOI” of 10 was used. Infected cells were treated with 1 μl of SMs (final concentration ranged between 100 μM and 6.25 μM) at 37° C. for 24 hrs in humidified, 5% CO2 incubator. Following incubation, cells were washed once with 150 μl of 1×PBS, lysed with 0.1% Triton-100X, serial ten-fold diluted in 1×PBS, and plated on agar plate. Plates were incubated at 37° C. for 24 hrs to determine the intracellular survival. Cells not infected and not treated, and cells infected and treated with 2% DMSO were used as controls.

Row | SMILES | Effect on S. Typhimurium at 200 μM (S. typhimurium WT [1]) | MIC/MBC (S. typhimurium WT [2]) [µM] | MIC/MBC (Salmonella Albany) [µM] | MIC/MBC (Salmonella Braenderup) [µM] | MIC/MBC (Salmonella Newport) [µM] | MIC/MBC (Salmonella Muenchen) [µM] | reduction of crystal violet uptake [3] [fold] | lethal effect in G. mellonella larvae [4] | MBC (μm), Caco-2 cells [5] [µM] | MBC (S. typhimurium WT [2]; Salmonella enterica, TYPHIMURIUM, read-out: MBCAlone of SM) [µM] | increase in permeability (crystal violet uptake) ([3]; compared to 1% DMSO-treated cells) [fold]
1 | CCCCCCCCCCCCCCCC[n+]1ccn(CC#N)c1.[Cl-] [SM3, 1-(cyanomethyl)-3-hexadecyl-1H-imidazol-3-ium chloride] | Bactericidal | 25 | 25 | 25 | 50 | 50 | 4.46 | killed only a few larvae | 50 | – | –
2 | CC1CCC(C(C)C)C(OC(=O)Cn2c[n+](CC(=O)OC3CC(C)CCC3C(C)C)c3ccccc32)C1.[Cl-] (stereo not shown) [SM1, 1,3-bis{2-[(2-isopropyl-5-methylcyclohexyl)oxy]-2-oxoethyl}-1H-3,1-benzimidazol-3-ium chloride] | Bactericidal | 50 | 100 | 100 | 100 | 100 | 1.88 | chronic death of the larvae over time | 25 | – | –
3 | CCOc1cc(/C=N/N=C(N)N)ccc1OCc1ccc(Cl)cc1 [SM5, N″-{4-[(4-chlorobenzyl)oxy]-3-ethoxybenzylidene}carbonohydrazonic diamide] | Bactericidal | 25 (≈ 8.67 µg/mL) | 100 (≈ 34.7 µg/mL) | 50 (≈ 17.3 µg/mL) | 50 (≈ 17.3 µg/mL) | 50 (≈ 17.3 µg/mL) | – | killed only a few larvae | 12.5 (≈ 4.34 µg/mL) | 25 (≈ 8.67 µg/mL) | 2.32
4 | CCCCCCCCCCCCCCCCn1c[n+](C)c2ccccc21.[Br-] [SM4, 1-hexadecyl-3-methyl-1H-3,1-benzimidazol-3-ium bromide] | Bactericidal | 10 | 10 | 10 | 25 | 25 | 2.01 | no lethal effect | 25 | – | –

— patent US12161630B2, “Methods to control infection using new generation small molecule growth inhibitors” (priority 2017, dated 2024)
